Results reported in patent publication US9512116B2, “Compounds that modulate intracellular calcium” (CALCIMEDICA, INC., priority 2012, dated 2016).
Read-outs that look alike come from different tables or passages of the source.

How the values were obtained:
Orai1/STIM1 = biological target: T1, Orai1/STIM1 (Homo sapiens, UniProt Q96D31); experiment: Fluorescence-based assay of store-operated calcium entry in Orai1/STIM1 stable cells; format: cell-based; settings: HEK-293 cells stably expressing human STIM1 and Orai1, Peak-Basal signal, read-out: Orail/STIM1 (IC50, μmol)
T1 construct: expressed in transfected cells; host or cells: HEK-293
Description: Fluorescence-based assays are used for screening the compounds described herein, such as compounds of Formulas (I), (II), (III), (IV) or (V) which modulate intracellular calcium.
A. Fluorescence-Based Assay of Store-Operated Calcium Entry in Orai1/STIM1 Stable Cells.
Cells stably expressing recombinant human STIM1 and Orai1 are generated by transfecting a human Orai1 expression plasmid (pcDNA3.1-Orai1-cmyc) into HEK-293 cells stably overexpressing human STIM1 (Roos et al. 2005 JCB 169(3): 435-445). Colonies of cells stably expressing both STIM1 and Orai1 proteins are selected and then subcloned by limiting dilution. Cells were cultured at 37° C./6% CO2 in complete medium with 10% FBS and appropriate selection markers.
The day prior to performing the assay Orai1/STIM1 stable cells are plated in 50 μL of complete medium at 90-95% confluence in a 384 well plate. Cells are grown at 37° C./6% CO2 overnight. On the day of the assay, 1.5 μM fluo-4-AM (Invitrogen) in complete medium is added to the cells, which are then incubated for 1 hour at RT. Cells are washed once in Ca^2+-free HBSS (Hank's buffered saline solution) and 35 μl of Ca^2+-free HBSS is added to each well. Test compounds are added to wells in a 10 μL Ca^2+-free HBSS solution, prepared at 4.5× the desired final concentration, and incubated for 30 minutes at RT. The initial baseline fluorescence signal is then measured with a FLIPR^384 (Molecular Devices) plate reader. Calcium entry is initiated by adding 5 μl of 10×CaCl2 (10 mM) in HBSS, and changes in cellular fluorescence are measured with the FLIPR^384 plate reader. In each well, the magnitude of the fluorescence signal as a result of calcium entry into the cell is determined by calculating the difference between the peak fluorescence signal measured after calcium addition and the initial baseline fluorescence signal (designated Peak-Basal). IC50 values are typically calculated as the concentration that inhibited 50% of the Peak-Basal signal.

RBL-2H3 cells = experiment: Fluorescence-based assay of store-operated calcium entry in RBL-2H3 cells; format: cell-based; settings: Rattus norvegicus, thapsigargin, Upslope, read-out: RBL-2H3 (IC50, μmol)
Method: B. Fluorescence-Based Assay of Store-Operated Calcium Entry in RBL-2H3 Cells.
RBL-2H3 cells are obtained from ATCC and maintained in complete medium with 10% FBS at 37° C./6% CO2.
The day prior to performing the assay, RBL-2H3 cells are plated in 50 μl of complete medium in a 384 well plate. Cells are grown at 37° C./6% CO2 overnight and grow to 50-60% confluence by the next day. On the assay day, 1.5 μM Fluo-4-AM dye (Invitrogen) in complete medium is added and incubated for 1 hour at RT. Cells are washed twice in Ca^2+-free HBSS buffer and 35 μL Ca^2+-free HBSS buffer is added to each well. 10 μL of a test compound prepared in a Ca^2+-free HBSS solution at 4.5× of the desired concentration is added to a well and incubated for 5 minutes at RT. 10 μL of thapsigargin prepared in a Ca^2+-free HBSS solution at 5.5× of the desired concentration (5.5 uM) is added to each well and incubated for an additional 25 minutes. The initial baseline fluorescence signal is measured with a FLIPR^384 (Molecular Devices) plate reader. 5 μL of 12× calcium in HBSS (12 mM) is added and changes in cellular fluorescence are measured with the FLIPR^384 plate reader. In each well, the change in the fluorescent signal as a function of time due to calcium entry into the cell is determined by calculating the difference between the fluorescent signal measured 7 seconds after calcium addition and the initial baseline fluorescence signal at time zero (t=0). This parameter is designated Upslope. The IC50 value is calculated as the concentration at which 50% of the Upslope is inhibited.

T1 sequence (Q96D31 whole entry): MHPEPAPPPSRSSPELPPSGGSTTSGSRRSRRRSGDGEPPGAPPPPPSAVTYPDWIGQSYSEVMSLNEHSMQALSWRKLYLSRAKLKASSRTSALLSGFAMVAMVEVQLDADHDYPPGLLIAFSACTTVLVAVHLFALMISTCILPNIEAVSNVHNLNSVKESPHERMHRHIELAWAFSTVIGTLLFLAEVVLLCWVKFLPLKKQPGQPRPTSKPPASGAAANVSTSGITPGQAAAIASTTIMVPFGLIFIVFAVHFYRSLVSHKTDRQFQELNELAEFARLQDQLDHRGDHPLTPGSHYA

Row | IC50 (Orai1/STIM1; Table IV) [nM] | IC50 (Orai1/STIM1; Table III) [nM] | SMILES | also measured
1 | < 600 |  | Cn1nc(-c2nccs2)cc1-c1ccc(NC(=O)c2c(F)cccc2F)s1 [Compound 6, (2,6-difluorophenyl)-N-[5-[1-methyl-3-(1,3-thiazol-2-yl)pyrazol-5-yl](2-thienyl)]carboxamide] | 
2 | < 600 |  | Cn1nc(-c2nccs2)cc1-c1ccc(NC(=O)c2ccc(F)cc2F)s1 [Compound 7, (2,4-difluorophenyl)-N-[5-[1-methyl-3-(1,3-thiazol-2-yl)pyrazol-5-yl](2-thienyl)]carboxamide] | 
3 | < 600 |  | Cn1nc(-c2nccs2)cc1-c1ccc(NC(=O)c2c(F)cc(F)cc2F)s1 [Compound 10, (2,4,6-trifluorophenyl)-N-[5-[1-methyl-3-(1,3-thiazol-2-yl)pyrazol-5-yl](2-thienyl)]carboxamide] | 
4 |  | < 600 | Cc1oc(C(F)(F)F)nc1-c1ccc(NC(=O)c2c(F)cccc2F)nc1 [Compound 14, 2,6-difluoro-N-(5-(5-methyl-2-(trifluoromethyl)oxazol-4-yl)pyridin-2-yl)benzamide] | 
5 | 600 to 1200 |  | CCn1nc(-c2nccs2)cc1-c1ccc(NC(=O)c2c(F)cccc2F)s1 [Compound 15] | 
6 |  | < 600 | Cc1ccccc1C(=O)Nc1ccc(-c2nc(C(F)(F)F)oc2C)cn1 [Compound 15] | 
7 | 600 to 1200 |  | CCn1nc(-c2nccs2)cc1-c1ccc(NC(=O)c2c(F)cc(F)cc2F)s1 [Compound 16] | 
8 |  | < 600 | Cc1oc(C(F)(F)F)nc1-c1ccc(NC(=O)c2ccccc2F)nc1 [Compound 16] | 
9 |  | < 600 | Cc1oc(C(F)(F)F)nc1-c1ccc(NC(=O)c2c(F)cncc2F)nc1 [Compound 17, 3,5-difluoro-N-(5-(5-methyl-2-(trifluoromethyl)oxazol-4-yl)pyridin-2-yl)isonicotinamide] | 
10 |  | < 600 | Cc1oc(C(F)(F)F)nc1-c1ccc(NC(=O)c2cccc(F)c2C)nc1 [Compound 19, 3-fluoro-2-methyl-N-(5-(5-methyl-2-(trifluoromethyl)oxazol-4-yl)pyridin-2-yl)benzamide] | 
11 | < 600 |  | Cn1nc(-c2ccccc2F)cc1-c1ccc(NC(=O)c2c(F)cc(F)cc2F)s1 [Compound 20] | IC50 (RBL-2H3 cells; Table IV): < 600 nM
12 |  | < 600 | Cc1cccc(F)c1C(=O)Nc1ccc(-c2nc(C(F)(F)F)oc2C)cn1 [Compound 21] | IC50 (RBL-2H3 cells; Table III): < 600 nM
13 | 600 to 1200 |  | Cn1nc(-c2ccccc2F)cc1-c1ccc(NC(=O)c2c(F)ccc(F)c2F)s1 [Compound 21] | IC50 (RBL-2H3 cells; Table IV): 600 to 1200 nM
14 | < 600 |  | Cn1nc(-c2ccccc2F)cc1-c1ccc(NC(=O)c2c(F)cccc2F)s1 [Compound 22] | IC50 (RBL-2H3 cells; Table IV): < 600 nM
15 |  | < 600 | CCc1oc(C(F)(F)F)nc1-c1ccc(NC(=O)c2ccccc2F)nc1 [Compound 24, N-(5-(5-ethyl-2-(trifluoromethyl)oxazol-4-yl)pyridin-2-yl)-2-fluorobenzamide] | 
16 |  | < 600 | CCc1oc(C(F)(F)F)nc1-c1ccc(NC(=O)c2c(F)cccc2F)nc1 [Compound 25, N-(5-(5-ethyl-2-(trifluoromethyl)oxazol-4-yl)pyridin-2-yl)-2,6-difluorobenzamide] | 
17 | 600 to 1200 |  | Cn1nc(-c2ccccn2)cc1-c1ccc(NC(=O)c2c(F)cc(F)cc2F)s1 [Compound 27, 2,4,6-trifluoro-N-(5-(1-methyl-3-(pyridin-2-yl)-1H-pyrazol-5-yl)thiophen-2-yl)benzamide] | 
18 | < 600 |  | Cn1nc(-c2ccccn2)cc1-c1ccc(NC(=O)c2c(F)cccc2F)s1 [Compound 28, 2,6-difluoro-N-(5-(1-methyl-3-(pyridin-2-yl)-1H-pyrazol-5-yl)thiophen-2-yl)benzamide] | 
